Assay results taken from patent US20090270379A1, “QUINOLONE DERIVATIVES USEFUL AS ANTIBACTERIAL AGENTS” (priority 2008, published 2009).
In brackets after ≈: the same amount, converted by molar mass.

Assays:
Type in all cases: cell-based
[1] = tested on: Streptococcus pneumoniae ATCC 49619; test: In vitro antibacterial activity (MIC), microdilution broth method, strain E; conditions: ATCC49619, 35° C., 16-20 hours
Experimental: (§1) Minimal inhibitory concentration (MIC) is an indicator of in vitro antibacterial activity. […] The in vitro antimicrobial activity of representative compounds of the present invention was determined by the microdilution broth method following the test method from the National Committee for Clinical Laboratory Standards (NCCLS). This method is described in the NCCLS Document M7-A4, Vol. 17, No. 2, “Methods for Dilution Antimicrobial Susceptibility Test for Bacteria that Grow Aerobically—Fourth Edition”, which is incorporated herein by reference.
(§2) In this method two-fold serial dilutions of drug in cation adjusted Mueller-Hinton broth were added to wells in microdilution trays. The test organisms were prepared by adjusting the turbidity of actively growing broth cultures so that the final concentration of test organism after it is added to the wells was approximately 5×10^4 CFU/well. Following inoculation of the microdilution trays, the trays were incubated at 35° C. for 16-20 hours and then read. The amount of growth in the wells containing the test compound was compared with the amount of growth in the growth-control wells (no test compound) used in each tray.
(§3) Representative compounds of the present invention were tested against a variety of pathogenic bacteria with results as listed in Table 3, below.

[2] = tested on: strain B, fluoroquinolone-resistant clinical isolate of Streptococcus pneumoniae; test: In vitro antibacterial activity (MIC), microdilution broth method, strain B; conditions: read-out: MIC (μg/mL) B
Experimental: as §1, §2, §3

[3] = tested on: strain D, fluoroquinolone-resistant clinical isolate of Streptococcus pneumoniae; test: In vitro antibacterial activity (MIC), microdilution broth method, strain D; conditions: read-out: MIC (μg/mL) D
Experimental: as §1, §2, §3

[4] = tested on: strain C, fluoroquinolone-resistant clinical isolate of Streptococcus pneumoniae; test: In vitro antibacterial activity (MIC), microdilution broth method, strain C; conditions: read-out: MIC (μg/mL) C
Experimental: as §1, §2, §3

[5] = tested on: Staphylococcus aureus OC4172; test: In vitro antibacterial activity (MIC), microdilution broth method, strain A; conditions: cation adjusted Mueller-Hinton broth, 35° C., 16-20 hours
Experimental: as §1, §2, §3

O=C(O)c1cn(C2CC2)c2c(OC(F)F)c(-c3cc4n(c3)CCNC4)ccc2c1=O [Compound 1, 1-Cyclopropyl-8-difluoromethoxy-4-oxo-7-(1,2,3,4-tetrahydro-pyrrolo[1,2-a]pyrazin-7-yl)-1,4-dihydro-quinoline-3-carboxylic acid]
MIC [1]: 0.5 µg/mL (≈ 1.2 µM) | MIC [2]: 1 µg/mL (≈ 2.41 µM) | MIC [3]: 8 µg/mL (≈ 19.3 µM) | MIC [4]: 8 µg/mL (≈ 19.3 µM) | MIC [5]: 0.06 µg/mL (≈ 0.144 µM)

O=C(O)c1cn(C2CC2)c2c(OC(F)F)c(C3=C[C@H]4CN(Cc5ccccc5)CCN4C3)ccc2c1=O [Compound 2, 7-(2-Benzyl-1,2,3,4,6,8a-hexahydro-pyrrolo[1,2S-a]pyrazin-7-yl)-1-cyclopropyl-8-difluoromethoxy-4-oxo-1,4-dihydro-quinoline-3-carboxylic acid]
MIC [1]: 8 µg/mL (≈ 15.8 µM) | MIC [2]: > 16 µg/mL | MIC [3]: > 16 µg/mL | MIC [4]: > 16 µg/mL | MIC [5]: 0.5 µg/mL (≈ 0.985 µM)

O=C(O)c1cn(C2CC2)c2c(OC(F)F)c(C3C[C@H]4CNCCN4C3)ccc2c1=O (stereo partly drawn) [Compound 3, 1-Cyclopropyl-8-difluoromethoxy-7-(octahydro-pyrrolo[1,2S-a]pyrazin-7-yl)-4-oxo-1,4-dihydro-quinoline-3-carboxylic acid]
MIC [1]: > 16 µg/mL | MIC [2]: > 16 µg/mL | MIC [3]: > 16 µg/mL | MIC [4]: > 16 µg/mL | MIC [5]: 8 µg/mL (≈ 19.1 µM)

CN1CCn2cc(-c3ccc4c(=O)c(C(=O)O)cn(C5CC5)c4c3OC(F)F)cc2C1 [Compound 4, 1-Cyclopropyl-8-difluoromethoxy-7-(2-methyl-1,2,3,4-tetrahydro-pyrrolo[1,2-a]pyrazin-7-yl)-4-oxo-1,4-dihydro-quinoline-3-carboxylic acid]
MIC [1]: 2 µg/mL (≈ 4.66 µM) | MIC [2]: 2 µg/mL (≈ 4.66 µM) | MIC [3]: > 16 µg/mL | MIC [4]: > 16 µg/mL | MIC [5]: 0.25 µg/mL (≈ 0.582 µM)

CN1CCN2CC(c3ccc4c(=O)c(C(=O)O)cn(C5CC5)c4c3OC(F)F)C[C@H]2C1 (stereo partly shown) [Compound 5, 1-Cyclopropyl-8-difluoromethoxy-7-(2-methyl-octahydro-pyrrolo[1,2s-a]pyrazin-7-yl)-4-oxo-1,4-dihydro-quinoline-3-carboxylic acid]
MIC [1]: > 16 µg/mL | MIC [2]: > 16 µg/mL | MIC [3]: > 16 µg/mL | MIC [4]: > 16 µg/mL | MIC [5]: 8 µg/mL (≈ 18.5 µM)

C[C@H]1CN2CC(c3ccc4c(=O)c(C(=O)O)cn(C5CC5)c4c3OC(F)F)C[C@H]2CN1 (stereo partly drawn) [Compound 6, 1-Cyclopropyl-8-difluoromethoxy-7-(3S-methyl-octahydro-pyrrolo[1,2S-a]pyrazin-7-yl)-4-oxo-1,4-dihydro-quinoline-3-carboxylic acid]
MIC [1]: > 16 µg/mL | MIC [2]: > 16 µg/mL | MIC [3]: > 16 µg/mL | MIC [4]: > 16 µg/mL | MIC [5]: 4 µg/mL (≈ 9.23 µM)

C[C@H]1Cn2cc(-c3ccc4c(=O)c(C(=O)O)cn(C5CC5)c4c3OC(F)F)cc2CN1 [Compound 7, 1-Cyclopropyl-8-difluoromethoxy-7-(3S-methyl-1,2,3,4-tetrahydro-pyrrolo[1,2-a]pyrazin-7-yl)-4-oxo-1,4-dihydro-quinoline-3-carboxylic acid]
MIC [1]: 1 µg/mL (≈ 2.33 µM) | MIC [2]: 1 µg/mL (≈ 2.33 µM) | MIC [3]: 16 µg/mL (≈ 37.3 µM) | MIC [4]: 8 µg/mL (≈ 18.6 µM) | MIC [5]: 0.12 µg/mL (≈ 0.279 µM)

C[C@@H]1NCCn2cc(-c3ccc4c(=O)c(C(=O)O)cn(C5CC5)c4c3OC(F)F)cc21 [Compound 8, 1-Cyclopropyl-8-difluoromethoxy-7-(1S-methyl-1,2,3,4-tetrahydro-pyrrolo[1,2-a]pyrazin-7-yl)-4-oxo-1,4-dihydro-quinoline-3-carboxylic acid]
MIC [1]: 1 µg/mL (≈ 2.33 µM) | MIC [2]: 4 µg/mL (≈ 9.31 µM) | MIC [3]: > 16 µg/mL | MIC [4]: 16 µg/mL (≈ 37.3 µM) | MIC [5]: 0.5 µg/mL (≈ 1.16 µM)

C[C@H]1NCCn2cc(-c3ccc4c(=O)c(C(=O)O)cn(C5CC5)c4c3OC(F)F)cc21 [Compound 9, 1-Cyclopropyl-8-difluoromethoxy-7-(1R-methyl-1,2,3,4-tetrahydro-pyrrolo[1,2-a]pyrazin-7-yl)-4-oxo-1,4-dihydro-quinoline-3-carboxylic acid]
MIC [1]: 1 µg/mL (≈ 2.33 µM) | MIC [2]: 4 µg/mL (≈ 9.31 µM) | MIC [3]: > 16 µg/mL | MIC [4]: 16 µg/mL (≈ 37.3 µM) | MIC [5]: 0.5 µg/mL (≈ 1.16 µM)

CN[C@@H](C)C(=O)N1CCn2cc(-c3ccc4c(=O)c(C(=O)O)cn(C5CC5)c4c3OC(F)F)cc2C1 [Compound 10, 1-Cyclopropyl-8-difluoromethoxy-7-[2S-(2-methylamino-propionyl)-1,2,3,4-tetrahydro-pyrrolo[1,2-a]pyrazin-7-yl]-4-oxo-1,4-dihydro-quinoline-3-carboxylic acid]
MIC [1]: 2 µg/mL (≈ 4 µM) | MIC [2]: 4 µg/mL (≈ 7.99 µM) | MIC [3]: > 16 µg/mL | MIC [4]: 16 µg/mL (≈ 32 µM) | MIC [5]: 0.25 µg/mL (≈ 0.499 µM)

COc1c(-c2cc3n(c2)C[C@H](C)NC3)c(F)cc2c(=O)c(C(=O)O)cn(C3CC3)c12 [Compound 11, 1-Cyclopropyl-6-fluoro-8-methoxy-7-(3S-methyl-1,2,3,4-tetrahydro-pyrrolo[1,2-a]pyrazin-7-yl)-4-oxo-1,4-dihydro-quinoline-3-carboxylic acid]
MIC [1]: 0.12 µg/mL (≈ 0.292 µM) | MIC [2]: 0.5 µg/mL (≈ 1.22 µM) | MIC [3]: 4 µg/mL (≈ 9.72 µM) | MIC [4]: 1 µg/mL (≈ 2.43 µM) | MIC [5]: 0.03 µg/mL (≈ 0.0729 µM)

COc1c(-c2cc3n(c2)C[C@@H](C)NC3)c(F)cc2c(=O)c(C(=O)O)cn(C3CC3)c12 [Compound 12, 1-Cyclopropyl-6-fluoro-8-methoxy-7-(3R-methyl-1,2,3,4-tetrahydro-pyrrolo[1,2-a]pyrazin-7-yl)-4-oxo-1,4-dihydro-quinoline-3-carboxylic acid]
MIC [1]: 0.25 µg/mL (≈ 0.608 µM) | MIC [2]: 1 µg/mL (≈ 2.43 µM) | MIC [3]: 8 µg/mL (≈ 19.4 µM) | MIC [4]: 2 µg/mL (≈ 4.86 µM) | MIC [5]: 0.03 µg/mL (≈ 0.0729 µM)

COc1c(-c2cc3n(c2)C[C@H](C)N(C)C3)c(F)cc2c(=O)c(C(=O)O)cn(C3CC3)c12 [Compound 13, 1-Cyclopropyl-7-(2,3S-dimethyl-1,2,3,4-tetrahydro-pyrrolo[1,2-a]pyrazin-7-yl)-6-fluoro-8-methoxy-4-oxo-1,4-dihydro-quinoline-3-carboxylic acid]
MIC [1]: 0.5 µg/mL (≈ 1.18 µM) | MIC [2]: 0.5 µg/mL (≈ 1.18 µM) | MIC [3]: 8 µg/mL (≈ 18.8 µM) | MIC [4]: 4 µg/mL (≈ 9.4 µM) | MIC [5]: 0.12 µg/mL (≈ 0.282 µM)

COc1c(-c2cc3n(c2)C[C@@H](C)N(C)C3)c(F)cc2c(=O)c(C(=O)O)cn(C3CC3)c12 [Compound 14, 1-Cyclopropyl-7-(2,3R-dimethyl-1,2,3,4-tetrahydro-pyrrolo[1,2-a]pyrazin-7-yl)-6-fluoro-8-methoxy-4-oxo-1,4-dihydro-quinoline-3-carboxylic acid]
MIC [1]: 1 µg/mL (≈ 2.35 µM) | MIC [2]: 2 µg/mL (≈ 4.7 µM) | MIC [3]: > 16 µg/mL | MIC [4]: 8 µg/mL (≈ 18.8 µM) | MIC [5]: 0.25 µg/mL (≈ 0.588 µM)

COc1c(-c2cc3n(c2)C[C@H](CO)N(C)C3)c(F)cc2c(=O)c(C(=O)O)cn(C3CC3)c12 [Compound 15, 1-Cyclopropyl-6-fluoro-7-(3R-hydroxymethyl-2-methyl-1,2,3,4-tetrahydro-pyrrolo[1,2-a]pyrazin-7-yl)-8-methoxy-4-oxo-1,4-dihydro-quinoline-3-carboxylic acid]
MIC [1]: 1 µg/mL (≈ 2.27 µM) | MIC [2]: 4 µg/mL (≈ 9.06 µM) | MIC [3]: 16 µg/mL (≈ 36.2 µM) | MIC [4]: 8 µg/mL (≈ 18.1 µM) | MIC [5]: 0.12 µg/mL (≈ 0.272 µM)

COc1c(-c2cc3n(c2)CCN[C@H]3C)c(F)cc2c(=O)c(C(=O)O)cn(C3CC3)c12 [Compound 16, 1-Cyclopropyl-6-fluoro-8-methoxy-7-(1S-methyl-1,2,3,4-tetrahydro-pyrrolo[1,2-a]pyrazin-7-yl)-4-oxo-1,4-dihydro-quinoline-3-carboxylic acid]
MIC [1]: 0.5 µg/mL (≈ 1.22 µM) | MIC [2]: 2 µg/mL (≈ 4.86 µM) | MIC [3]: 8 µg/mL (≈ 19.4 µM) | MIC [4]: 4 µg/mL (≈ 9.72 µM) | MIC [5]: 0.12 µg/mL (≈ 0.292 µM)

COc1c(-c2cc3n(c2)CCN[C@@H]3C)c(F)cc2c(=O)c(C(=O)O)cn(C3CC3)c12 [Compound 17, 1-Cyclopropyl-6-fluoro-8-methoxy-7-(1R-methyl-1,2,3,4-tetrahydro-pyrrolo[1,2-a]pyrazin-7-yl)-4-oxo-1,4-dihydro-quinoline-3-carboxylic acid]
MIC [1]: 2 µg/mL (≈ 4.86 µM) | MIC [2]: 8 µg/mL (≈ 19.4 µM) | MIC [3]: > 16 µg/mL | MIC [4]: 16 µg/mL (≈ 38.9 µM) | MIC [5]: 0.25 µg/mL (≈ 0.608 µM)

COc1c(-c2cc3n(c2)C[C@H](C)N[C@@H]3C)c(F)cc2c(=O)c(C(=O)O)cn(C3CC3)c12 [Compound 18, 1-Cyclopropyl-7-(1R,3S-dimethyl-1,2,3,4-tetrahydro-pyrrolo[1,2-a]pyrazin-7-yl)-6-fluoro-8-methoxy-4-oxo-1,4-dihydro-quinoline-3-carboxylic acid]
MIC [1]: 1 µg/mL (≈ 2.35 µM) | MIC [2]: 2 µg/mL (≈ 4.7 µM) | MIC [3]: 16 µg/mL (≈ 37.6 µM) | MIC [4]: 8 µg/mL (≈ 18.8 µM) | MIC [5]: 0.12 µg/mL (≈ 0.282 µM)

C[C@H]1Cn2cc(-c3cc4c(cc3F)c(=O)c(C(=O)O)cn4C3CC3)cc2CN1 [Compound 19, 1-Cyclopropyl-6-fluoro-7-(3S-methyl-1,2,3,4-tetrahydro-pyrrolo[1,2-a]pyrazin-7-yl)-4-oxo-1,4-dihydro-quinoline-3-carboxylic acid]
MIC [1]: 0.5 µg/mL (≈ 1.31 µM) | MIC [2]: 2 µg/mL (≈ 5.24 µM) | MIC [3]: > 16 µg/mL | MIC [4]: 4 µg/mL (≈ 10.5 µM) | MIC [5]: 0.06 µg/mL (≈ 0.157 µM)

C[C@H]1Cn2cc(-c3cc4c(cc3F)c(=O)c(C(=O)O)cn4C3CC3)cc2CN1C [Compound 20, 1-Cyclopropyl-7-(2,3S-dimethyl-1,2,3,4-tetrahydro-pyrrolo[1,2-a]pyrazin-7-yl)-6-fluoro-4-oxo-1,4-dihydro-quinoline-3-carboxylic acid]
MIC [1]: 1 µg/mL (≈ 2.53 µM) | MIC [2]: 4 µg/mL (≈ 10.1 µM) | MIC [3]: > 16 µg/mL | MIC [4]: 16 µg/mL (≈ 40.5 µM) | MIC [5]: 0.5 µg/mL (≈ 1.26 µM)
